Laboratory results published in the NIST ThermoML archive (doi:10.1021/je060429r).
± gives the expanded uncertainty stated by the source.

Conditions: Transpiration method

For `Oc1cc(Cl)ccc1Cl` [2,5-dichlorophenol], the “vapor or sublimation pressure” value (294.3 K, Crystal) was 0.0089 ± 0.0005 kPa, the “vapor or sublimation pressure” value (297.3 K, Crystal) was 0.0122 ± 0.0006 kPa and the “vapor or sublimation pressure” value (300.4 K, Crystal) was 0.0168 ± 0.0009 kPa. The “vapor or sublimation pressure” value (303.3 K, Crystal) was 0.0223 ± 0.0011 kPa, the “vapor or sublimation pressure” value (306.3 K, Crystal) was 0.0302 ± 0.0015 kPa and the “vapor or sublimation pressure” value (309.2 K, Crystal) was 0.0399 ± 0.002 kPa. The “vapor or sublimation pressure” value (312.2 K, Crystal) was 0.0532 ± 0.0027 kPa, the “vapor or sublimation pressure” value (315.2 K, Crystal) was 0.0708 ± 0.0036 kPa and the “vapor or sublimation pressure” value (318.3 K, Crystal) was 0.0944 ± 0.0047 kPa. The “vapor or sublimation pressure” value (321.3 K, Crystal) was 0.1257 ± 0.0063 kPa, the “vapor or sublimation pressure” value (324.4 K, Crystal) was 0.1636 ± 0.0081 kPa and the “vapor or sublimation pressure” value (327.4 K, Crystal) was 0.2133 ± 0.01 kPa. For the same molecule, the “vapor or sublimation pressure” value (333.3 K, Liquid) was 0.3198 ± 0.015 kPa, the “vapor or sublimation pressure” value (337.2 K, Liquid) was 0.3996 ± 0.019 kPa and the “vapor or sublimation pressure” value (340.2 K, Liquid) was 0.4726 ± 0.022 kPa. The “vapor or sublimation pressure” value (343.2 K, Liquid) was 0.5513 ± 0.026 kPa, the “vapor or sublimation pressure” value (346.2 K, Liquid) was 0.6514 ± 0.031 kPa and the “vapor or sublimation pressure” value (349.2 K, Liquid) was 0.7643 ± 0.036 kPa. The “vapor or sublimation pressure” value (352.2 K, Liquid) was 0.894 ± 0.043 kPa, the “vapor or sublimation pressure” value (355.2 K, Liquid) was 1.048 ± 0.05 kPa and the “vapor or sublimation pressure” value (358.1 K, Liquid) was 1.204 ± 0.057 kPa. For the same molecule, the “vapor or sublimation pressure” value (361.2 K, Liquid) was 1.403 ± 0.066 kPa.
For `Oc1ccccc1Cl` [2-chlorophenol], the “vapor or sublimation pressure” value (288.4 K, Liquid) was 0.0863 ± 0.0043 kPa, the “vapor or sublimation pressure” value (291.3 K, Liquid) was 0.1102 ± 0.0054 kPa and the “vapor or sublimation pressure” value (294.3 K, Liquid) was 0.1378 ± 0.0067 kPa. The “vapor or sublimation pressure” value (297.3 K, Liquid) was 0.1681 ± 0.0081 kPa, the “vapor or sublimation pressure” value (300.3 K, Liquid) was 0.2059 ± 0.01 kPa and the “vapor or sublimation pressure” value (303.3 K, Liquid) was 0.2559 ± 0.012 kPa. The “vapor or sublimation pressure” value (306.2 K, Liquid) was 0.3083 ± 0.015 kPa, the “vapor or sublimation pressure” value (309.2 K, Liquid) was 0.3763 ± 0.018 kPa and the “vapor or sublimation pressure” value (312.2 K, Liquid) was 0.4633 ± 0.022 kPa. The “vapor or sublimation pressure” value (315.2 K, Liquid) was 0.5579 ± 0.027 kPa, the “vapor or sublimation pressure” value (318.2 K, Liquid) was 0.6649 ± 0.032 kPa and the “vapor or sublimation pressure” value (321.2 K, Liquid) was 0.7992 ± 0.038 kPa.
In the case of `Oc1ccc(Cl)c(Cl)c1` [3,4-dichlorophenol], the “vapor or sublimation pressure” value (291.4 K, Crystal) is reported as 0.00027 ± 2e-05 kPa, the “vapor or sublimation pressure” value (294.3 K, Crystal) is reported as 0.0004 ± 2e-05 kPa and the “vapor or sublimation pressure” value (300.3 K, Crystal) is reported as 0.00086 ± 4e-05 kPa. The “vapor or sublimation pressure” value (303.5 K, Crystal) was 0.00121 ± 6e-05 kPa, the “vapor or sublimation pressure” value (306.7 K, Crystal) was 0.00177 ± 9e-05 kPa and the “vapor or sublimation pressure” value (309.5 K, Crystal) was 0.00247 ± 0.00013 kPa. For the same molecule, the “vapor or sublimation pressure” value (314.3 K, Crystal) was 0.00423 ± 0.00021 kPa, the “vapor or sublimation pressure” value (317.2 K, Crystal) was 0.00587 ± 0.0003 kPa and the “vapor or sublimation pressure” value (320.4 K, Crystal) was 0.00806 ± 0.00041 kPa. The “vapor or sublimation pressure” value (323.3 K, Crystal) was 0.01069 ± 0.00055 kPa, the “vapor or sublimation pressure” value (326.3 K, Crystal) was 0.01474 ± 0.00075 kPa and the “vapor or sublimation pressure” value (329.3 K, Crystal) was 0.01992 ± 0.001 kPa. The “vapor or sublimation pressure” value (332.3 K, Crystal) was 0.02618 ± 0.0013 kPa, the “vapor or sublimation pressure” value (335.3 K, Crystal) was 0.03423 ± 0.0017 kPa and the “vapor or sublimation pressure” value (337.3 K, Crystal) was 0.04096 ± 0.002 kPa. For the same molecule, the “vapor or sublimation pressure” value (341.3 K, Liquid) was 0.057 ± 0.0028 kPa, the “vapor or sublimation pressure” value (344.3 K, Liquid) was 0.0703 ± 0.0034 kPa and the “vapor or sublimation pressure” value (347.2 K, Liquid) was 0.0854 ± 0.0041 kPa. For the same molecule, the “vapor or sublimation pressure” value (350.3 K, Liquid) was 0.1055 ± 0.0051 kPa, the “vapor or sublimation pressure” value (353.2 K, Liquid) was 0.127 ± 0.0061 kPa and the “vapor or sublimation pressure” value (356.3 K, Liquid) was 0.1544 ± 0.0074 kPa. The “vapor or sublimation pressure” value (359.2 K, Liquid) was 0.1858 ± 0.0089 kPa, the “vapor or sublimation pressure” value (362.2 K, Liquid) was 0.223 ± 0.011 kPa and the “vapor or sublimation pressure” value (365.4 K, Liquid) was 0.2696 ± 0.013 kPa. The “vapor or sublimation pressure” value (368.4 K, Liquid) was 0.3217 ± 0.015 kPa.
In the case of `Oc1ccc(Cl)cc1Cl` [2,4-dichlorophenol], the “vapor or sublimation pressure” value (278.2 K, Crystal) is reported as 0.00175 ± 0.0001 kPa, the “vapor or sublimation pressure” value (283.3 K, Crystal) is reported as 0.00312 ± 0.00017 kPa and the “vapor or sublimation pressure” value (289.3 K, Crystal) is reported as 0.00626 ± 0.00032 kPa. For the same molecule, the “vapor or sublimation pressure” value (294.4 K, Crystal) was 0.01082 ± 0.00054 kPa, the “vapor or sublimation pressure” value (297.3 K, Crystal) was 0.01464 ± 0.00075 kPa and the “vapor or sublimation pressure” value (300.4 K, Crystal) was 0.02025 ± 0.001 kPa. For the same molecule, the “vapor or sublimation pressure” value (303.3 K, Crystal) was 0.02801 ± 0.0014 kPa, the “vapor or sublimation pressure” value (306.3 K, Crystal) was 0.03848 ± 0.0019 kPa and the “vapor or sublimation pressure” value (309.4 K, Crystal) was 0.05208 ± 0.0026 kPa. The “vapor or sublimation pressure” value (312.4 K, Crystal) was 0.06848 ± 0.0034 kPa, the “vapor or sublimation pressure” value (315.2 K, Crystal) was 0.09034 ± 0.0045 kPa and the “vapor or sublimation pressure” value (317.2 K, Liquid) was 0.1061 ± 0.0052 kPa. The “vapor or sublimation pressure” value (320.3 K, Liquid) was 0.1326 ± 0.0064 kPa, the “vapor or sublimation pressure” value (323.2 K, Liquid) was 0.1612 ± 0.0078 kPa and the “vapor or sublimation pressure” value (326.1 K, Liquid) was 0.1933 ± 0.0094 kPa. The “vapor or sublimation pressure” value (329.2 K, Liquid) was 0.2419 ± 0.012 kPa, the “vapor or sublimation pressure” value (332.2 K, Liquid) was 0.2831 ± 0.013 kPa and the “vapor or sublimation pressure” value (335.2 K, Liquid) was 0.3393 ± 0.016 kPa. For the same molecule, the “vapor or sublimation pressure” value (338.2 K, Liquid) was 0.4027 ± 0.019 kPa, the “vapor or sublimation pressure” value (341.2 K, Liquid) was 0.4846 ± 0.023 kPa and the “vapor or sublimation pressure” value (344.2 K, Liquid) was 0.5835 ± 0.028 kPa.
With `Clc1c(Cl)c(Cl)c(Cl)c(Cl)c1Cl` [hexachlorobenzene] the “vapor or sublimation pressure” value (358 K, Crystal) was 0.00144 ± 7e-05 kPa, the “vapor or sublimation pressure” value (362.9 K, Crystal) was 0.00216 ± 0.00011 kPa and the “vapor or sublimation pressure” value (368.9 K, Crystal) was 0.00373 ± 0.00018 kPa. The “vapor or sublimation pressure” value (373.1 K, Crystal) was 0.00519 ± 0.00026 kPa, the “vapor or sublimation pressure” value (377.8 K, Crystal) was 0.00771 ± 0.00038 kPa and the “vapor or sublimation pressure” value (382.9 K, Crystal) was 0.01123 ± 0.00055 kPa. The “vapor or sublimation pressure” value (389 K, Crystal) was 0.01836 ± 0.00089 kPa, the “vapor or sublimation pressure” value (392.8 K, Crystal) was 0.0238 ± 0.0011 kPa and the “vapor or sublimation pressure” value (397.9 K, Crystal) was 0.03341 ± 0.0016 kPa. For the same molecule, the “vapor or sublimation pressure” value (402.8 K, Crystal) was 0.04901 ± 0.0024 kPa.
For `Oc1c(Cl)c(Cl)c(Cl)c(Cl)c1Cl` [pentachlorophenol], the “vapor or sublimation pressure” value (348.1 K, Crystal) was 0.00127 ± 7e-05 kPa, the “vapor or sublimation pressure” value (353.1 K, Crystal) was 0.00206 ± 0.0001 kPa and the “vapor or sublimation pressure” value (358 K, Crystal) was 0.00304 ± 0.00015 kPa. The “vapor or sublimation pressure” value (363 K, Crystal) was 0.00483 ± 0.00024 kPa, the “vapor or sublimation pressure” value (367.8 K, Crystal) was 0.00681 ± 0.00033 kPa and the “vapor or sublimation pressure” value (371.9 K, Crystal) was 0.00975 ± 0.00048 kPa. For the same molecule, the “vapor or sublimation pressure” value (378.1 K, Crystal) was 0.01517 ± 0.00074 kPa, the “vapor or sublimation pressure” value (383 K, Crystal) was 0.02172 ± 0.0011 kPa and the “vapor or sublimation pressure” value (388.9 K, Crystal) was 0.03268 ± 0.0016 kPa. The “vapor or sublimation pressure” value (393.2 K, Crystal) was 0.04374 ± 0.0021 kPa, the “vapor or sublimation pressure” value (397.8 K, Crystal) was 0.06045 ± 0.0029 kPa and the “vapor or sublimation pressure” value (399.8 K, Crystal) was 0.07143 ± 0.0035 kPa. The “vapor or sublimation pressure” value (403.2 K, Crystal) was 0.09099 ± 0.0044 kPa.
With `Oc1cccc(Cl)c1Cl` [2,3-dichlorophenol] the “vapor or sublimation pressure” value (294.3 K, Crystal) was 0.0078 ± 0.0004 kPa, the “vapor or sublimation pressure” value (297.3 K, Crystal) was 0.0107 ± 0.0006 kPa and the “vapor or sublimation pressure” value (300.2 K, Crystal) was 0.0149 ± 0.0008 kPa. For the same molecule, the “vapor or sublimation pressure” value (303.2 K, Crystal) was 0.0192 ± 0.001 kPa, the “vapor or sublimation pressure” value (306.2 K, Crystal) was 0.0267 ± 0.0013 kPa and the “vapor or sublimation pressure” value (309.2 K, Crystal) was 0.0351 ± 0.0018 kPa. For the same molecule, the “vapor or sublimation pressure” value (312.2 K, Crystal) was 0.0482 ± 0.0024 kPa, the “vapor or sublimation pressure” value (315.2 K, Crystal) was 0.0633 ± 0.0031 kPa and the “vapor or sublimation pressure” value (318.1 K, Crystal) was 0.0798 ± 0.004 kPa. For the same molecule, the “vapor or sublimation pressure” value (321.2 K, Crystal) was 0.1081 ± 0.0054 kPa, the “vapor or sublimation pressure” value (324.3 K, Crystal) was 0.1429 ± 0.0071 kPa and the “vapor or sublimation pressure” value (327.3 K, Crystal) was 0.1835 ± 0.0089 kPa. The “vapor or sublimation pressure” value (331.2 K, Liquid) was 0.2449 ± 0.012 kPa, the “vapor or sublimation pressure” value (334.3 K, Liquid) was 0.2946 ± 0.014 kPa and the “vapor or sublimation pressure” value (337.2 K, Liquid) was 0.3508 ± 0.017 kPa. The “vapor or sublimation pressure” value (340.3 K, Liquid) was 0.4132 ± 0.02 kPa, the “vapor or sublimation pressure” value (343.2 K, Liquid) was 0.4874 ± 0.023 kPa and the “vapor or sublimation pressure” value (346.2 K, Liquid) was 0.5745 ± 0.027 kPa. For the same molecule, the “vapor or sublimation pressure” value (349.2 K, Liquid) was 0.6662 ± 0.032 kPa, the “vapor or sublimation pressure” value (352.1 K, Liquid) was 0.7881 ± 0.037 kPa and the “vapor or sublimation pressure” value (355.2 K, Liquid) was 0.9247 ± 0.044 kPa. For the same molecule, the “vapor or sublimation pressure” value (358.2 K, Liquid) was 1.078 ± 0.051 kPa.
